Results as given in PubChem BioAssay AID1645848.
Values after ≈ are worked out from the molar mass of the structure shown.

conditions: buffer; pH 7.4; 6.0 h; 150.0 µM

SMILES	solubility kinetic [µg/mL]
COc1cc([C@@H](CC(=O)O)c2ccc(C)c(CN3C[C@@H](C)Oc4ccccc4S3(=O)=O)c2)cc2nnn(C)c12	> 81
COc1ccc(NC(=O)c2cccnc2C)cc1S(=O)(=O)Nc1ccc(Br)cc1	26.4 (≈ 55.5 µM)
[2H]C([2H])(Nc1nc(-c2ccccc2C([2H])(C([2H])([2H])[2H])C([2H])([2H])[2H])ncc1C)c1ccc(-n2ccnn2)cc1	13.5 (≈ 34.3 µM)
Cc1cccc([C@H]2[C@@H]3C=CC[C@@H](C)[C@@H]3C(=O)N2Cc2ccccc2)c1	< 1
Cc1csc2nc(-c3cccc(NC(=O)c4ccccc4Cl)c3)cn12	< 1
CCOc1ccc(CCNC(=O)c2cc3ncccc3n2Cc2cccc(C)n2)cc1OCC	> 68
CCOc1ccc(OCC)c(NC(=O)C(NS(=O)(=O)c2ccc(Br)s2)c2ccccc2)c1 (stereo not drawn)	< 1
Fc1ccc(-c2csc3ncnc(Sc4nnnn4C4CC4)c23)cc1	2.91 (≈ 7.85 µM)
Cc1cc(N[S+](=O)([O-])c2ccc(NC(=O)Cc3ccc(F)c(F)c3)cc2)no1	> 60
O=C(Nc1nc(-c2ccccc2)cs1)c1ccccc1-n1cnnn1	< 1
Cc1ccc(S(=O)(=O)Nc2cc(F)c(F)cc2C(=O)Nc2nc(-c3ccccc3)cs2)cc1	< 1
N#Cc1cc(NC(=O)Nc2nnc(-c3ccncc3)s2)ccc1-c1cn[nH]c1	< 1
CCOc1ccccc1N(CC(=O)Nc1cc(OC)ccc1OC)S(=O)(=O)c1ccccc1	< 1
O=C(Nc1ccc(-c2ccccc2)cc1)[C@H](Cc1ccc(O[S+](=O)([O-])c2cccc3cnccc23)cc1)N[S+](=O)([O-])c1cccc2cnccc12	< 1
Nc1c(C(=O)Nc2ccc(Cl)cc2)sc2nc3c(cc12)N1CCC3CC1	< 1
O=C(Nc1ccc(-c2nc3cc(NC(=O)c4ccccc4Cl)ccc3o2)cc1)c1ccccc1Cl	< 1
CCc1ccc2oc(=O)cc(CN3CCN(c4ccccc4F)CC3)c2c1	< 1
COc1ccc(NS(=O)(=O)c2ccc(C)cc2)c(C(=O)Nc2nc(-c3ccccc3)cs2)c1	< 1
Cc1cccc2oc(NC3=NC(c4[nH]ncc4Cl)C4=C(CCCC4=O)N3)nc12 (stereo not drawn)	< 1
CN1C(=O)c2ccccc2[S@](=O)c2ccc(C(=O)NCCc3cccs3)cc21	45.9 (≈ 112 µM)
CC(=O)c1c(C)n(-c2ccccc2)c2ccc(O)cc12	1.14 (≈ 4.28 µM)
Cc1ccc(S(=O)(=O)Nc2ccc(OC(F)(F)F)cc2C(=O)Nc2nc(-c3ccccc3)cs2)cc1	< 1
NC(=O)C1CCN(c2nc(-c3ccc(OCc4ccccc4)cc3)cs2)CC1	< 1
O=C(O)c1ccnc2cc(-c3nc4ccccc4n3CCN3CCCCC3)sc12	6.93 (≈ 17.1 µM)
Cc1ccc2c(c1)/C(=C\c1cc(Cl)c(O)c(Cl)c1)C(=O)N2	15.4 (≈ 48.1 µM)

SMILES	solubility kinetic [µg/mL]
COc1ccccc1-c1cc2c(ccn2C)c(C(=O)NCC2CCN(C)C(=O)C2)n1 (stereo not drawn)	> 90
COc1ccc(-c2ccc3nc(-c4ccc(SC)cc4)oc3c2)c(OC)c1OC	< 1
Fc1cc(Nc2nc(-c3ccncc3)nc3ccccc23)ccc1-c1cccc(OC(F)F)c1	< 1
Cc1ccc(S(=O)(=O)N2CCCc3cc(NS(=O)(=O)c4ccccc4)ccc32)cc1	< 1
COc1ccc(Nc2cc(C)nc(-n3nc(C)cc3C)n2)cc1Cl	3.58 (≈ 10.4 µM)
CC(=O)c1c(C)[nH]c(C(=O)Nc2cccc([S+](=O)([O-])N3CCC(F)(F)CC3)c2)c1C	8.98 (≈ 20.4 µM)
CSc1ccccc1N1CCN(CCCCCC(=O)NC2CCCc3ccccc32)CC1 (stereo not drawn)	44.7 (≈ 99 µM)
COc1ccc(NC(=O)c2[nH]c(C)cc2C)cc1S(=O)(=O)Nc1ccc(Br)cc1	< 1
CC(C)NC(=O)c1nc(-c2ccc(Cl)nc2)c2cnccn12	16.5 (≈ 52.2 µM)
O=C(c1cc2ccccc2[nH]1)N1CCc2c(n(Cc3cccnc3)n(CCc3ccccc3)c2=O)C1	> 47
O=C(NCCCn1ccnc1)c1nc(-c2ccccc2)cc2[nH]ccc12	> 77
NC(=O)C1CCN(c2nc(-c3cccc4sc5ccccc5c34)cs2)CC1	< 1
CC1Cc2cc(S(=O)(=O)NCc3ccc(N(C)C)cc3)ccc2N1C(=O)C1CCC1 (stereo not drawn)	3.08 (≈ 7.2 µM)
NC(=O)C1CCN(c2nc(-c3ccccc3C(F)(F)F)cs2)CC1	> 52
Cc1nn2c(c1-c1ccccc1-c1ccccc1)N(Cc1ccccc1)CCC2	4.07 (≈ 10.7 µM)
COc1ccnc(NC(=S)N2CCN(c3ccc(Cl)c(Cl)c3)CC2)c1	3.16 (≈ 7.96 µM)
Cc1nc2ccc(C(=O)N3CCC4(CC3)CC(=O)c3c(cnn3C(C)C)C4)cc2[nH]1	> 60
COc1cccc(CNc2ccc(C(=O)Nc3nccs3)cc2)c1O	< 1
Cc1ccc2oc(NC3=NC(c4ccccc4Cl)C4=C(CCCC4=O)N3)nc2c1 (stereo not drawn)	< 1
CN1C(=O)CN=C(c2ccccc2Cl)c2cc(Cl)ccc21	> 47
Cc1cc(-c2nnc3n2CCCCC3)c(C)n1-c1ccc(C#N)cc1	> 49
O=S(=O)(Nc1nccs1)c1ccc(NCc2cccc(F)c2O)cc1	> 56
CN1C(=O)c2ccccc2[S@](=O)c2ccc(C(=O)NCc3ccc(Br)cc3)cc21	< 1
COc1ccc(-n2c(C)c(C(C)=O)c3cc(O)ccc32)cc1	5.69 (≈ 19.3 µM)
COc1ccc(C2=Nn3c(nnc3-c3ccncc3)SC2)cc1	9.06 (≈ 28 µM)

SMILES	solubility kinetic [µg/mL]
Cc1ccc(NC(=O)c2cc(-c3ccc[nH]3)n[nH]2)cc1F	> 28
Cc1ccc(NS(=O)(=O)c2ccc3[nH]c4c(c3c2)CCCCCC4)cc1	< 1
NCC(=O)Nc1cccc(-c2nn3c(=O)cc(N4CCNCC4)nc3s2)c1	43.2 (≈ 112 µM)
Clc1ccc(-c2nnc(C3CCCCC3)o2)cc1	< 1
Nc1nc(Nc2ccc(S(N)(=O)=O)cc2)n(C(=S)Nc2c(F)cccc2F)n1	< 1
COc1ccc(OC)c(-c2nnc3ccc(-c4ccc(OC)c(O[C@@H]5CCOC5)c4)nn23)c1	> 66
CCc1ccc(OC(C)C(=O)N2CCC(c3nc4ccccc4o3)CC2)cc1 (stereo not drawn)	17.9 (≈ 47.3 µM)
Cc1ccc(S(=O)(=O)Nc2cnccc2C(=O)Nc2cccc3ccccc23)cc1	46.4 (≈ 111 µM)
CCOC(=O)N1CCN(C(=O)Cn2sc3nc(C)cc(C)c3c2=O)CC1	39 (≈ 103 µM)
Cc1ccc2oc3c(c(=O)c2c1)C(c1cccc(O)c1)N(CCCN1CCOCC1)C3=O (stereo not drawn)	> 64
Cc1nn(CCc2nc(-c3ccccc3F)cs2)c2[nH]c(=O)cc(C(F)(F)F)c12	< 1
CC(=O)c1c(C)[nH]c(C(=O)Nc2ccc(OCCCN(C)C)c(S(=O)(=O)Nc3ccc(Br)cc3)c2)c1C	39 (≈ 66 µM)
CNC(=O)c1cccc(-c2cnc(Nc3cccc(C(F)(F)F)c3)c3c2CCO3)c1	< 1
Cc1ccc(-c2nc3ccccc3o2)cc1NC(=O)COc1ccccc1	< 1
COc1cc(-c2nc(-c3c(C)noc3C)cc3c2cc(C)n3CCN(C)C)ccn1	> 90
N#C/C(=C\c1ccc(-c2ccc(C(=O)O)cc2)o1)c1nc2ccccc2[nH]1	< 1
Cc1ccnc(NC(=S)N2CCN(c3ccc(C(F)(F)F)cc3)CC2)c1	< 1
Fc1cc(Nc2nc(-c3ccncc3)nc3ccccc23)ccc1OC(F)(F)F	< 1
Cn1c(=O)c2c(-c3ccc(Br)cc3)n(CCc3ccccc3)cc2n(C)c1=O	14.7 (≈ 33.5 µM)
Cc1ccc(C(=O)NC2CCN(c3cnn(CC4CC4)c(=O)c3)CC2)cc1C	< 1
Nc1nc2c(s1)C(c1ccccc1OCc1ccccc1Cl)CC(=O)N2 (stereo not drawn)	2.06 (≈ 5.34 µM)
Cc1ccc(S(=O)(=O)Nc2cccc(C(=O)Nc3nc(-c4ccccc4)cs3)c2Cl)cc1	< 1
Cc1cc(C)c(C(=O)Nc2cccc([S+](=O)([O-])N3CCCCC3)c2)[nH]1	< 1
COc1cc(C(=O)N2CCN(c3cc(Cl)ccc3Cl)CC2)cc(OC)c1OC	< 1
NC(=O)C1CCN(c2nc(-c3ccc4c(c3)OCO4)cs2)CC1	> 49

SMILES	solubility kinetic [µg/mL]
COc1ccc(C(=O)c2sc(Nc3cccc(Cl)c3)nc2N)cc1	< 1
CCOc1cc(-c2nccc3cc(OC)c(OC)cc23)cc(OCC)c1OCC	13.8 (≈ 34.6 µM)
O=C(Cc1n[nH]c(=O)c2ccccc12)NC1CCCc2c1[nH]c1c(Cl)cccc21 (stereo not drawn)	< 1
Cn1cc(Br)c(C2N=C(Nc3nc4ccccc4o3)NC3=C2C(=O)CCC3)n1 (stereo not drawn)	24.7 (≈ 56.1 µM)
O=C(O)c1cn(C2CC2)c2cc(N3C[C@@H]4C[C@H]3CN4)c(F)cc2c1=O	> 51
NC(=O)C1CCN(c2ncc(-c3ccc(Br)cc3)s2)CC1	1.62 (≈ 4.42 µM)
CC(NCc1ccc2c(c1)nc(NC(=O)c1ccc(-c3cn[nH]c3)s1)n2CC(C)(C)O)C(C)(C)C (stereo not drawn)	> 73
CC(C)CNC(=O)c1cn2cc(-c3ccccc3)sc2n1	5.33 (≈ 17.8 µM)
COc1ccc(-c2ccc(C(=O)NC3CC(c4cc(=O)[nH]c(N)n4)C3)o2)cc1 (stereo not drawn)	30.4 (≈ 79.9 µM)
COc1cc(-c2nc(Nc3ccc(F)c(F)c3)c3ccccc3n2)c(F)cn1	< 1
NC(=O)C1CCN(c2nc(-c3cccnc3)cs2)CC1	> 43
CCc1ccc(C2C(C(=O)Nc3ccccc3OC)=C(C)Nc3c(C(=O)Nc4ccc(C)cc4)cnn32)cc1 (stereo not drawn)	5.74 (≈ 11 µM)
O=C(CCCN1CCC2(CC1)C(=O)N(Cc1cccc(F)c1)CN2c1ccccc1)c1ccc(F)cc1	4.23 (≈ 8.41 µM)
CCOc1ccc(CCNC(=O)c2cc3sccc3n2C)cc1OCC	8.05 (≈ 21.6 µM)
CN(C)CCNC(=O)c1nc2nc(-c3ccccc3)c(-c3cccc(Cl)c3)cc2n1C	66.8 (≈ 154 µM)
Cc1ccc2oc(NC3=NC4(CCCC4)C4=C(CCCC4=O)N3)nc2c1	< 1
COc1ccc(OC)c(C(=O)Nc2nc(-c3ccccc3)cs2)c1	< 1
COc1cccc(CNc2ccc(S(=O)(=O)Nc3cc(C)on3)cc2)c1O	> 58
Cc1nc2sccn2c(=O)c1S(=O)(=O)Nc1ccc(N2CCN(S(C)(=O)=O)CC2)cc1	6.85 (≈ 14.2 µM)
Cc1ccc(-c2cc(C(=O)Nc3ccc(C#N)cc3)c3ccccc3n2)cc1C	< 1
CNc1oc(-c2cccc3ccccc23)nc1C#N	< 1
Cc1ccc(NS(=O)(=O)c2ccccc2C(=O)Nc2nc(-c3ccccc3)cs2)cc1	< 1
Cc1ccc(-n2nc3c(=O)n(CCCC(=O)NCc4ccc(F)cc4)nc(C)c3c2C)cc1	5.86 (≈ 13.1 µM)
